Patent US20050107616A1, “Alpha-ketoamide derivatives as cathepsin k inhibitors” (priority 2001, published 2005)
Like-named read-outs stand apart in the source and are kept apart here.

Key:
Type in all cases: biochemical
[1] = target: T1, human cathepsin K (Homo sapiens, UniProt P43235); experiment: Cathepsin K inhibition assay, fluorogenic substrate Cbz-Phe-Arg-AMC, progress curve method; conditions: human recombinant enzyme, pH 5.5, 30° C., 10 μM substrate, read-out: hCat K Ki
T1 construct: The proform of cathepsin K was converted to mature cathepsin K by brief exposure to pH 4; made in house; host or cells: baculovirus; Trichoplusia ni High Five cells (virus raised in Sf-9)
T1 sequence (P43235 115-329): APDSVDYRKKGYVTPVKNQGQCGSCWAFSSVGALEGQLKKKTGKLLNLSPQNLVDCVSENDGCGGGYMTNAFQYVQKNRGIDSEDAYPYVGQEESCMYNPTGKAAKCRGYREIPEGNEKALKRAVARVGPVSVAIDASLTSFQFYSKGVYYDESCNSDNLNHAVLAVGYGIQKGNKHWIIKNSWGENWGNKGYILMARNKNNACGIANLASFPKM
How it was run: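 Recombinant human cathepsin K from insect cells, made mature by pH 4/L-cysteine activation, was assayed with 10 μM Cbz-Phe-Arg-AMC in 10% DMSO at 30° C. […]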

[2] = target: human cathepsin S (Homo sapiens, UniProt P25774); experiment: Cathepsin S inhibition assay, fluorogenic substrate Cbz-Val-Val-Arg-AMC; conditions: Table 2; human recombinant enzyme, pH 5.5, 30° C., 10 μM substrate; read-out: hCat S Ki
human cathepsin S, sequence (P25774 115-331): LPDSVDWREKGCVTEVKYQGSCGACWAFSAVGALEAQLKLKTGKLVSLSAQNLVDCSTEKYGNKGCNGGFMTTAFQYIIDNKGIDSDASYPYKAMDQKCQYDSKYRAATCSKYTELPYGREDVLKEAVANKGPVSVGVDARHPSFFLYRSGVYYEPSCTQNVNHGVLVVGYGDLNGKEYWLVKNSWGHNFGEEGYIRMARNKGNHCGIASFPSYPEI
Experimental: (§1) All assays for cathepsin K were carried out with human and rat recombinant enzyme. Assays for cathepsins S Et V were also carried out with human recombinant enzyme. Assays for human cathepsins B. H. and L were carried out with enzyme, purchased from Athens Research and Technology, Inc., prepared from human liver tissue. Standard assay conditions for the determination of kinetic constants used a fluorogenic peptide substrate, typically (5S,8S)-13-amino-5-benzyl-13-imino-3-methylene-N-(4methyl-2-oxo-2H-chromen-7-yl)-6-oxo-1-phenyl-2-oxa-4,7,12-triazatridecane-8-carboxamide (Cbz-Phe-Arg-AMC), and were determined in 100 mM sodium acetate at pH 5.5 containing 10 mM dithiothreitol and 120 mM sodium chloride. A stock substrate solution of Cbz-Phe-Arg-AMC was prepared at a concentration of 50 mM in dimethyl sulfoxide. This substrate was diluted into the assay for a final substrate concentration of 10 μM in the rat cathepsin K, human cathepsin K, and human cathepsin B assays; a final substrate concentration of 5 μM in the human cathepsin L assay; and a final substrate concentration of 2 μM in the human cathepsin V assay.
A stock substrate solution of benzyl (1S)-1-{[((1S)-1-{[((1S)-4-{[amino(imino)methyl]amino}-1-{[(4-methyl-2-oxo-2H-chromen-7-yl)amino]carbonyl}butyl)amino]carbonyl}-2-methylpropyl)amino]carbonyl}-2-methylpropylcarbamate (Cbz-Val-Val-Arg-AMC) was prepared at a concentration of 10 mM in dimethyl sulfoxide. This substrate was diluted into the assay for a final substrate concentration of 10 μM in the human cathepsin S assay.
(§2) All assays contained 10% dimethyl sulfoxide. […] All assays were conducted at 30° C. Product fluorescence (excitation at 360 nm; emission at 440 nm, (except cathepsin H which used excitation at 340 nm; emission at 420 nm)) was monitored with a PerSeptive Biosystems Cytofluor II fluorescence plate reader. Product progress curves were generated over 2.3 h monitoring the formation of 7-amino-4-methylcoumarin product (or β-naphthalamide for cathepsin H).
(§3) Potential inhibitors were evaluated using the progress curve method. Assays were carried out in the presence of variable concentrations of test compound. Reactions were initiated by addition of buffered solutions of inhibitor and substrate to enzyme. Data analysis was conducted according to one of two procedures depending on the appearance of the progress curves in the presence of inhibitors. For those compounds whose progress curves were linear, the enzymatic activity (RATE) was plotted against the concentration of test compound, including inhibitor concentration of zero ([I]=0), and the IC50 determined from a fit of equation 1 to the data, RATE=Vmax/(1+([I]/IC50)) (1) where Vmax is the best fit estimate of the maximal enzymatic activity. Ki values were calculated from IC50 values using equation 2 assuming a competitive model. [formula]

[3] = target: human cathepsin V (Homo sapiens, UniProt O60911); experiment: Cathepsin V inhibition assay, fluorogenic substrate Cbz-Phe-Arg-AMC; conditions: Table 2; human recombinant enzyme, pH 5.5, 30° C., 2 μM substrate; read-out: hCat V Ki
human cathepsin V, sequence (O60911 114-334): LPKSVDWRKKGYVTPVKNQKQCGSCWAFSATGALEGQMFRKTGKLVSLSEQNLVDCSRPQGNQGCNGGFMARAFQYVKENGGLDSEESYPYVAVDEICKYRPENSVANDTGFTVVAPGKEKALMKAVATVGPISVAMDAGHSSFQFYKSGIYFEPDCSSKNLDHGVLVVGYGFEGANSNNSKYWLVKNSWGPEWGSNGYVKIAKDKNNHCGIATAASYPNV
Experimental: as §1, §2, §3

Row | SMILES | Ki ([1]; Table 1) | Ki ([1]; Table 2) | Ki [2] | Ki [3]
1 | CCCC[C@H](NC(=O)O[C@H](Cc1nnc(-c2ccc(F)cc2)o1)C(C)(C)C)C(=O)C(=O)Nc1ccnn1C (stereo in doubt) [Example 22, (1R)-1-{[5-(4-fluorophenyl)-1,3,4-oxadiazol-2-yl]methyl}-2,2-dimethylpropyl(1S)-1-[[(1-methyl-1H-pyrazol-5-yl)amino](oxo)acetyl]pentyl carbamate] | 1 to 100 nM | 1 to 100 nM | 100 to 10000 nM | 100 to 10000 nM
2 | CCCC[C@H](NC(=O)O[C@H](Cn1ccc(-c2ccc(C(F)(F)F)cc2)n1)C(C)(C)C)C(=O)C(=O)Nc1ccn[nH]1 [Example 1] | 0.01 to 1 nM | 0.01 to 1 nM | 0.01 to 1 nM | 0.01 to 1 nM
3 | CCCC[C@H](NC(=O)O[C@H](Cn1cnc(-c2ccc(C(F)(F)F)cc2)c1)C(C)(C)C)C(=O)C(=O)Nc1ccn[nH]1 [Example 7, (1S)-2,2-dimethyl-1-({4-[4-(trifluoromethyl)phenyl]-1H-imidazol-1-yl}methyl)propyl(1S)-1-[oxo(1H-pyrazol-5-ylamino)acetyl]pentylcarbamate] | 0.01 to 1 nM | 0.01 to 1 nM | 0.01 to 1 nM | 0.01 to 1 nM

Next, values leading:

Row | Ki ([1]; Table 1) | Ki ([1]; Table 2) | Ki [2] | Ki [3] | SMILES
4 | 1 to 100 nM | 1 to 100 nM | 1 to 100 nM | 1 to 100 nM | CCCC[C@H](NC(=O)O[C@H](Cn1cnc(-c2ccc(C(F)(F)F)cc2)c1)C(C)(C)C)C(=O)C(=O)Nc1ccnn1C1CCC1 [Example 35, (1S)-2,2-dimethyl-1-({4-[4-(trifluoromethyl)phenyl]-1H-imidazol-1-yl}methyl)propyl(1S)-1-[[(1-cyclobutyl-1H-pyrazol-5-yl)amino](oxo)acetyl]pentylcarbamate]
5 | 0.01 to 1 nM | 0.01 to 1 nM | 0.01 to 1 nM | 0.01 to 1 nM | CCCC[C@H](NC(=O)O[C@H](Cn1cnc2cc(Cl)c(Cl)cc21)C(C)(C)C)C(=O)C(=O)Nc1ccn[nH]1 [Example 37, (1S)-1-[(5,6-dichloro-1H-benzimidazol-1-yl)methyl]-2,2-dimethylpropyl(1S)-1-[oxo(1H-pyrazol-5-ylamino)acetyl]pentylcarbamate]
6 | 0.01 to 1 nM | 0.01 to 1 nM | 1 to 100 nM | 1 to 100 nM | CCCC[C@H](NC(=O)O[C@H](c1nnc(-c2ccc(C(F)(F)F)cc2)o1)C(C)(C)C)C(=O)C(=O)Nc1ccn[nH]1 [Example 38, (1S)-2,2-dimethyl-1-{5-[4-(trifluoromethyl)phenyl]-1,3,4-oxadiazol-2-yl}propyl(1S)-1-[oxo(1H-pyrazol-5-ylamino)acetyl]pentylcarbamate]
7 | 0.01 to 1 nM | 0.01 to 1 nM | 1 to 100 nM | 1 to 100 nM | CCCC[C@H](NC(=O)O[C@H](c1nnc(-c2ccc(C(F)(F)F)cc2)o1)C(C)(C)C)C(=O)C(=O)NN1CCOC1=O [Example 39, (1S)-2,2-dimethyl-1-{5-[4-(trifluoromethyl)phenyl]-1,3,4-oxadiazol-2-yl}propyl(1S)-1-{oxo[(2-oxo-1,3-oxazolidin-3-yl)amino]acetyl}pentylcarbamate]
